Patent US11415579B2, “Assay for measuring a rate of reaction between a target and a ligand candidate” (Imperial College Innovations Ltd., priority 2016, dated 2022)

How the values were obtained:
Cdk2(S181C) (C177A) = biological target: T1, Cdk2(S181C) (C177A) (Homo sapiens, UniProt P24941, C177A/S181C); assay: Kinetic thiol consumption assay with Cdk2 mutant S181C; format: binding; design: key to Rate enhancement, Cdk2 S181C: rate constant with Cdk2 ÷ rate constant with model thiol (fold); settings: additional mutation C177A; for Rate constant with Cdk2 S181C: Protein: Cdk2, cysteine position S181C, in h^-1
T1 construct: poly-histidine; made in house; host or cells: E. coli
Procedure, shortened: (§1)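 5 μM thiol, degassed phosphate pH 8, 2% v/v immobilized TCEP beads; 1 h RT; fluorescence ex 380/em 470 nm; normalized vs DMSO/thiol-only; first-order exponential decay fit → rate constant; Cdk2 k / model-thiol k = rate enhancement per acrylamide.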

Cdk2(H71C) (C177A) = biological target: T2, Cdk2(H71C) (C177A) (Homo sapiens, UniProt P24941, C177A/H71C); assay: Kinetic thiol consumption assay with Cdk2 mutant H71C; format: binding; design: key to Rate enhancement, Cdk2 H71C: rate constant with Cdk2 ÷ rate constant with model thiol (fold); settings: additional mutation C177A; for Rate constant with Cdk2 H71C: Protein: Cdk2, cysteine position H71C, in h^-1
T2 construct: poly-histidine; made in house; host or cells: E. coli
Procedure, shortened: as §1

Cdk2(C177A, F80C) = biological target: T3, Cdk2(C177A, F80C) (Homo sapiens, UniProt P24941, C177A/F80C); assay: Kinetic thiol consumption assay with Cdk2 mutant F80C, incl. kobs versus concentration (Kd, k2); format: binding; design: key to Rate enhancement, Cdk2 F80C: Cdk2 rate constant divided by model-thiol rate constant; settings: additional mutation C177A
T3 construct: poly-histidine; made in house; host or cells: E. coli
Procedure, shortened: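 His-tagged Cdk2(C177A/F80C) from E. coli or model thiol, 5 μM in degassed phosphate buffer pH 8 with TCEP beads, reacted with acrylamide ligands; fluorescence (ex/em 380/470 nm) normalized to DMSO control and fitted to first-order decay for kobs. Kd and k2 obtained from hyperbolic fit of kobs versus ligand concentration.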

[1] = Kinetic thiol consumption assay with model thiol glutathione; format: physicochemical; design: Rate constant with glutathione (k(GSH)): unit not given here; settings: for Rate constant with glutathione (k(GSH)): 500 μM ligand, 5 μM thiol, phosphate buffer pH 8; for Rate constant with Glutathione: Protein: Glutathione, cysteine position NA, in h-1
Procedure, shortened: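 First, 5 μM glutathione in degassed phosphate buffer (pH 8) receives immobilized TCEP beads (2% v/v). Then acrylamide is added and plates incubate 1 h at room temperature. Finally, fluorescence (380/470 nm) is normalized and fitted to first-order decay for rate constants.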

Cdk2(R122C) (C177A) = biological target: T4, Cdk2(R122C) (C177A) (Homo sapiens, UniProt P24941, C177A/R122C); assay: Kinetic thiol consumption assay with Cdk2 mutant R122C; format: binding; design: key to Rate enhancement, Cdk2 R122C: rate constant with Cdk2 ÷ rate constant with model thiol (fold); settings: additional mutation C177A; for Rate constant with Cdk2 R122C: Protein: Cdk2, cysteine position R122C, in h-1
T4 construct: poly-histidine; made in house; host or cells: E. coli
Procedure, shortened: as §1

[2] = biological target: T5, human cyclin-dependent kinase 2 (Cdk2) (Homo sapiens, UniProt P24941); assay: Kinetic thiol consumption assay with wild type Cdk2 (C177); format: binding; design: key to Rate enhancement, Cdk2 WT: k(Cdk2) divided by k(model thiol); Rate constant with Cdk2 (k(Cdk2)): unit not given here; settings: for Rate constant with Cdk2 (k(Cdk2)): 500 μM ligand, 5 μM thiol, phosphate buffer pH 8; for Rate enhancement, Cdk2 WT: no additional mutations; for Rate constant with Cdk2 WT: Protein: Cdk2, cysteine position WT, in h^-1; for k(Cdk2)/k(Cdk2_mut) rate enhancement: model thiol Cdk2[C177A, F80C, K278C]; for k(Cdk2)/k(GSH) rate enhancement: model thiol glutathione
T5 construct: poly-histidine; made in house; host or cells: E. coli
Procedure, shortened: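 His-tagged human Cdk2 (single surface cysteine C177), expressed in E. coli, or a model thiol at 5 μM in degassed phosphate buffer pH 8 was pre-treated with immobilized TCEP beads (2% v/v) before acrylamide addition. Fluorescence (ex/em 380/470 nm) was read after 1 h at room temperature, normalized to DMSO/thiol-only control and plotted versus time.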

Cdk2[C177A, F80C, K278C] = biological target: T6, Cdk2[C177A, F80C, K278C] (Homo sapiens, UniProt P24941, C177A/F80C/K278C); assay: Kinetic thiol consumption assay with mutant Cdk2 as model thiol; format: binding; design: unit not given here; settings: 500 μM ligand, 5 μM thiol, phosphate buffer pH 8
T6 construct: poly-histidine; made in house; host or cells: E. coli
Procedure, shortened: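 Model thiol: His-tagged human Cdk2 C177A/F80C/K278C (two engineered surface cysteines), E. coli-expressed, 5 μM in degassed phosphate buffer pH 8 with immobilized TCEP beads (2% v/v). Fluorescence (ex/em 380/470 nm) followed over time at room temperature, normalized to DMSO/thiol control. First-order decay fit gives rate constants.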

Cdk2(T182C) (C177A) = biological target: T7, Cdk2(T182C) (C177A) (Homo sapiens, UniProt P24941, C177A/T182C); assay: Kinetic thiol consumption assay with Cdk2 mutant T182C; format: binding; design: key to Rate enhancement, Cdk2 T182C: rate constant with Cdk2 ÷ rate constant with model thiol (fold); settings: additional mutation C177A; for Rate constant with Cdk2 T182C: Protein: Cdk2, cysteine position T182C, in h^-1
T7 construct: poly-histidine; made in house; host or cells: E. coli
Procedure, shortened: as §1

Cdk2(S276C) (C177A) = biological target: T8, Cdk2(S276C) (C177A) (Homo sapiens, UniProt P24941, C177A/S276C); assay: Kinetic thiol consumption assay with Cdk2 mutant S276C; format: binding; design: key to Rate enhancement, Cdk2 S276C: rate constant with Cdk2 ÷ rate constant with model thiol (fold); settings: additional mutation C177A; for Rate constant with Cdk2 S276C: Protein: Cdk2, cysteine position S276C, in h^-1
T8 construct: poly-histidine; made in house; host or cells: E. coli
Procedure, shortened: as §1

Cdk2(N272C) (C177A) = biological target: T9, Cdk2(N272C) (C177A) (Homo sapiens, UniProt P24941, C177A/N272C); assay: Kinetic thiol consumption assay with Cdk2 mutant N272C; format: binding; design: key to Rate enhancement, Cdk2 N272: rate constant with Cdk2 ÷ rate constant with model thiol (fold); settings: for Rate enhancement, Cdk2 N272: Cdk2 N272, additional mutation C177A; for Rate constant with Cdk2 N272C: Protein: Cdk2, cysteine position N272C, additional mutation C177A, in h^-1
T9 construct: poly-histidine; made in house; host or cells: E. coli
Procedure, shortened: as §1

| Structure (SMILES) | Rate enhancement, Cdk2 S181C (Cdk2(S181C) (C177A)) | Rate constant with Cdk2 S181C (Cdk2(S181C) (C177A)) | Rate enhancement, Cdk2 H71C (Cdk2(H71C) (C177A)) | Rate constant with Cdk2 H71C (Cdk2(H71C) (C177A)) | Rate enhancement, Cdk2 F80C (Cdk2(C177A, F80C)) | Rate constant with glutathione (k(GSH)) [1] | Rate constant with Glutathione [1] | Rate enhancement, Cdk2 R122C (Cdk2(R122C) (C177A)) | Rate constant with Cdk2 R122C (Cdk2(R122C) (C177A)) | Rate constant with Cdk2 (k(Cdk2)) [2] | Rate enhancement, Cdk2 WT [2] | Rate constant with Cdk2 WT [2] | k(Cdk2)/k(Cdk2_mut) rate enhancement [2] | k(Cdk2)/k(GSH) rate enhancement [2] | Rate constant with Cdk2[C177A, F80C, K278C] (k(Cdk2_mut)) (Cdk2[C177A, F80C, K278C]) | Rate enhancement, Cdk2 T182C (Cdk2(T182C) (C177A)) | Rate constant with Cdk2 T182C (Cdk2(T182C) (C177A)) | Rate enhancement, Cdk2 S276C (Cdk2(S276C) (C177A)) | Rate constant with Cdk2 S276C (Cdk2(S276C) (C177A)) | Rate enhancement, Cdk2 N272 (Cdk2(N272C) (C177A)) | further results |
| --- | --- | --- | --- | --- | --- | --- | --- | --- | --- | --- | --- | --- | --- | --- | --- | --- | --- | --- | --- | --- | --- |
| C=CC(=O)Nc1nc2c(s1)CCCCCC2 [CA-170] | 0.4978 | 0.03578 | 0.9221 | 0.06628 | 13.67 | 0.06955 | 0.07188 | 0.3489 | 0.02508 | 0.2972 | 4.135 | 0.2972 | 0.3231 | 4.273 | 0.9197 | 5.267 | 0.3786 | 0.7229 | 0.05196 | 0.4672 | Rate constant with Cdk2 F80C (Cdk2(C177A, F80C); Protein: Cdk2, cysteine position F80C, in h^-1): 0.9829; Rate constant with Cdk2 N272C (Cdk2(N272C) (C177A)): 0.03358 |
| C=CC(=O)NC1c2ccccc2Oc2ccccc21 [CA-171] | 0.8523 | 0.006213 | 0.4785 | 0.003488 | 0 | 0.00416 | 0.00729 | 0.2126 | 0.00155 | 0.00423 | 1.547 | 0.01128 | 3.343 | 1.018 | 0.00127 | 13.51 | 0.09852 | 0.5204 | 0.003794 | 1.029 | Rate constant with Cdk2 N272C (Cdk2(N272C) (C177A)): 0.007502 |
